{"source": "PubChem BioAssay AID1996", "data": [{"details": "buffer; pH 7.4; 200.0 µM", "units": {"solubility kinetic": "µg/mL"}, "values": [{"smiles": "O=C(NCN1CCN(c2ccccc2)CC1)c1cnccn1", "solubility kinetic": "> 44.6"}, {"smiles": "COc1ccc(C(=O)N2CCN(C(=O)C3CCCO3)CC2)cc1[N+](=O)[O-]", "note": "(centres undefined)", "solubility kinetic": "> 54.5"}, {"smiles": "COC(=O)CNC(=S)NC(=O)c1ccc(C(C)(C)C)cc1", "solubility kinetic": 25.4}, {"smiles": "CC1CN(S(=O)(=O)c2ccc(C(=O)Nc3ccccc3F)cc2)CC(C)O1", "note": "(centres undefined)", "solubility kinetic": "> 58.9"}, {"smiles": "N#CCC(=O)Nc1ccc(C(=O)NCc2ccccn2)cc1", "solubility kinetic": "> 44.1"}, {"smiles": "O=C(CSc1ncccn1)Nc1cccc2ccccc12", "solubility kinetic": "> 44.3"}, {"smiles": "CC(=O)Nc1cccc(NC=C(C#N)C#N)c1", "solubility kinetic": 11.7}, {"smiles": "CC(=O)Cn1cnc2scc(-c3ccc(C)c(C)c3)c2c1=O", "solubility kinetic": 43.7}, {"smiles": "O=S(=O)(/N=C/c1c(O)ccc2ccccc12)c1ccccc1", "solubility kinetic": "> 46.7"}, {"smiles": "O=C(O)c1ccc(/C=C/c2nc3ccccc3c(=O)[nH]2)cc1", "solubility kinetic": "> 43.8"}, {"smiles": "CCOc1cccc2cc(C(=O)N3CCOCC3)c(=O)oc12", "solubility kinetic": "> 45.5"}, {"smiles": "O=C1Nc2ccc([N+](=O)[O-])cc2OC1CCN1CCOCC1", "note": "(centres undefined)", "solubility kinetic": "> 46.1"}, {"smiles": "Nc1ccc2nc(-c3cccc(-c4nc5ccc(N)cc5[nH]4)n3)[nH]c2c1", "solubility kinetic": 21.5}, {"smiles": "Cc1cccc(C)c1N1C(=O)CN(Cc2ccccc2)C1=S", "solubility kinetic": 27.8}, {"smiles": "COc1ccccc1NC(=O)COC(=O)C1CC2CCCC(C1)C2=O", "note": "(centres undefined)", "solubility kinetic": "> 51.8"}, {"smiles": "Cc1ccccc1NC1(C#N)CCCCC1", "solubility kinetic": 3.6}, {"smiles": "Cc1nc(/C(N)=N/OC(=O)c2cccc(Cl)c2)c(C(F)(F)F)o1", "solubility kinetic": "> 52.2"}, {"smiles": "Cc1cc(-c2ccccc2C(=O)Nc2ccccc2O)on1", "solubility kinetic": "> 44.1"}, {"smiles": "O=C(NNC(=O)c1ccncc1)Nc1cccc(C(F)(F)F)c1", "solubility kinetic": "> 48.6"}, {"smiles": "COc1ccccc1C(=O)NC(=O)COC(=O)CNC(=O)c1ccccc1F", "solubility kinetic": "> 58.3"}, {"smiles": "CC(CNS(=O)(=O)c1ccccc1)Sc1ncccn1", "note": "(centres undefined)", "solubility kinetic": "> 46.4"}, {"smiles": "COCCNC(=O)Cc1c(C)c2c(cc(C)c3c(C(C)(C)C)coc32)oc1=O", "solubility kinetic": 3.2}, {"smiles": "Cc1ccc(C(=O)OCC(=O)NC(=O)c2ccccc2)o1", "solubility kinetic": 32.9}, {"smiles": "CC(CC(=O)Nc1cccnc1)c1ccccc1", "note": "(centres undefined)", "solubility kinetic": "> 36"}, {"smiles": "O=[N+]([O-])C(C1CCS(=O)(=O)C1)C1CCS(=O)(=O)C1", "note": "(centres undefined)", "solubility kinetic": 41.8}, {"smiles": "Cn1c(=O)n(C)c2cc(NC(=O)COc3ccccc3)ccc21", "solubility kinetic": "> 46.7"}, {"smiles": "Cc1cc(C)c(S(=O)(=O)N2CCN(C(=O)N(C)C)CC2)c(C)c1", "solubility kinetic": "> 50.9"}, {"smiles": "O=Cc1c(F)cccc1N1CCCC1", "solubility kinetic": 15.3}, {"smiles": "OCCNc1nc(Cl)nc(NCc2ccco2)n1", "solubility kinetic": "> 40.5"}, {"smiles": "O=C(CSc1ccccc1)Nc1ccc2c(c1)OCO2", "solubility kinetic": 41.8}, {"smiles": "O=C(NCCc1ccc(F)cc1)N[C@@H](Cc1ccccc1)C(=O)O", "solubility kinetic": "> 49.6"}, {"smiles": "Fc1ccc(CNC(=S)NCc2ccc(F)cc2)cc1", "solubility kinetic": 6.4}, {"smiles": "CSc1ccccc1NC(=O)Nc1cccc2ccccc12", "solubility kinetic": "< 0.3"}, {"smiles": "COc1ccccc1NC(=O)c1ccc(NC(=O)COC(=O)c2cccnc2Cl)cc1", "solubility kinetic": 7.4}, {"smiles": "N#C/C(=C\\c1ccc(O)cc1)C(=O)NCc1cccc(Cl)c1", "solubility kinetic": "< 0.3"}, {"smiles": "Clc1ccc(N=C2SCCS2)cc1", "solubility kinetic": 11}, {"smiles": "COc1ccccc1/C=C1\\C(=O)NC(=S)N(c2ccccc2)C1=O", "solubility kinetic": "> 50.8"}, {"smiles": "OC(COc1ccccc1)CN1CCCCCC1", "note": "(centres undefined)", "solubility kinetic": "> 37.4"}, {"smiles": "CC1CCCCN1CC(=O)c1c[nH]c2ccccc12", "note": "(centres undefined)", "solubility kinetic": "> 38.5"}, {"smiles": "O=C(CSc1ncnc2ccccc12)NCC(=O)c1ccccc1", "solubility kinetic": 7.1}, {"smiles": "Cc1ccccc1-n1c(=O)n(CCc2ccccc2)c(=O)c2[nH]cnc21", "solubility kinetic": 10.8}, {"smiles": "COc1cccc(CC(CC(=O)O)C(=O)Nc2cc(C)ccc2C)c1", "note": "(centres undefined)", "solubility kinetic": 35.7}, {"smiles": "CC(=O)N1CCN(C(=O)CCCNC(=O)c2ccc(Cl)cc2)CC1", "solubility kinetic": "> 52.8"}, {"smiles": "O=C(CSc1ccc(F)cc1)Nc1ccc(C2SCCS2)cc1", "solubility kinetic": "< 0.8"}, {"smiles": "CC(=O)Nc1ccccc1OCC(=O)NCC(F)(F)F", "solubility kinetic": 43.2}, {"smiles": "C=CCn1c(O)c(/C(C)=N/N2CCCCCC2)c(=O)[nH]c1=O", "solubility kinetic": "> 46"}, {"smiles": "COCc1cc(Sc2ccc(Cl)cc2)nc(C)n1", "solubility kinetic": 40.1}, {"smiles": "COc1ccc(/C=C/C(=O)NCCCNC(=O)/C=C/c2ccc(OC)c(OC)c2)cc1OC", "solubility kinetic": 60}, {"smiles": "COc1cc(OC)c(C(=O)OCC(=O)NC23CC4CC(CC(C4)C2)C3)cc1OC", "solubility kinetic": 3.9}, {"smiles": "Cc1cccc(C(=O)Nc2ccc3c(c2)C(=O)N(CC(C)C)C3=O)c1", "solubility kinetic": "< 0.4"}, {"smiles": "N#Cc1ccc(C(=O)NC(=S)N2CCOCC2)cc1", "solubility kinetic": "> 41.3"}, {"smiles": "COc1ccc(C2C(C)C3(O)CC(C#N)(C(=O)N3)C2(C#N)C#N)cc1", "note": "(centres undefined)", "solubility kinetic": "> 50.5"}, {"smiles": "O=C(/C=C/c1ccco1)NCC1OCCc2ccccc21", "note": "(centres undefined)", "solubility kinetic": 41.5}, {"smiles": "CC1CCCCN1CC(O)COCc1ccccc1.Cl", "note": "(centres undefined)", "solubility kinetic": "> 45"}, {"smiles": "Cc1ccc(C)c(C(=O)NC(C)CCc2ccccc2)c1", "note": "(centres undefined)", "solubility kinetic": 0.7}, {"smiles": "C=CCN1C(=O)CSC1=Nc1ccc(NC(C)=O)cc1", "solubility kinetic": 42}, {"smiles": "CN1CCCN(S(=O)(=O)c2ccccc2)CC1.Cl", "solubility kinetic": 39.8}, {"smiles": "COc1ccc(S(=O)(=O)N2CCCc3ccccc32)cc1[N+](=O)[O-]", "solubility kinetic": 9.7}, {"smiles": "CCC(CC)NC(=O)Nc1ccc(C)cc1", "solubility kinetic": 21.4}]}]}
